# What was measured:
# Assay in all cases: drug sensitivity score (DSS) from 5-dose viability curve (DSS (area-based score, 0 = no response)); higher = more sensitive (stronger viability inhibition); extreme values may be limits of the assay
# [1] = test system: MDCK wild-type + doxycycline; conditions: doxycycline: 10 ng/mL; 72 h
# Method in brief: (§1)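 Parental MDCK cells and MDCK cells with a doxycycline-inducible transgene were both grown with doxycycline at 10 ng/mL in the medium before plating, then dispensed at 2000 cells/well into 384-well plates pre-spotted with an oncology library of 528 drugs at five doses (1-10,000 nM). After 72 h at 37 °C, CellTiter-Glo luminescence was recorded and scaled on each plate between vehicle and positive controls. This scaled signal served as the viability readout, and drug sensitivity scores were derived from dose-response curve fits in the Breeze pipeline.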
# [2] = test system: MDCK p60AmotL2-inducible + doxycycline (p60AmotL2 expressing); conditions: doxycycline: 10 ng/mL; 72 h
# Method in brief: as §1
# [3] = test system: MDCK wild-type - doxycycline; conditions: doxycycline: none; 72 h
# Method in brief: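 Viability of parental MDCK cells cultured without doxycycline was measured by CellTiter-Glo luminescence and scaled per plate between vehicle and positive controls. The cells had been exposed for 72 h to an oncology library of 528 drugs at five doses (1-10,000 nM). Drug sensitivity scores were calculated from dose-response curve fits in the Breeze pipeline.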
SMILES,drug sensitivity score [1],drug sensitivity score [2],drug sensitivity score [3]
O=C1NC(=O)[C@@H](c2cn3c4c(cccc24)CCC3)[C@@H]1c1c[nH]c2ccccc12 [Tivantinib],3.4,2.7,1.6
OC[C@H]1O[C@@H](n2cnc3c2N=CNC[C@H]3O)C[C@@H]1O [Pentostatin],0,0,0
Cc1c(Cn2c(C)nc3c(C(=O)O)cc(N4CCOCC4)cc32)cccc1C(F)(F)F,0,0,0
C[C@@H]1COC(Nc2ccc3ncnc(Nc4ccc(OCc5nccs5)c(Cl)c4)c3c2)=N1 [Varlitinib],3.6,7.2,1.6
C[C@@]1(C(=O)Nc2ccc(F)nc2)CCCN1c1nc(Nc2cc(C3CC3)n[nH]2)c2cccn2n1,8.5,12.6,0
CC[C@]1(O)C[C@@H]2CN(CCc3c([nH]c4ccccc34)[C@@](C(=O)OC)(c3cc4c(cc3OC)N(C)[C@H]3[C@@](O)(C(=O)OC)[C@H](OC(C)=O)[C@]5(CC)C=CCN6CC[C@]43[C@@H]65)C2)C1 [Vinblastine],24,25.2,25.6
Nc1ncnc2c1nc(N)n2[C@@H]1O[C@H](CO)[C@@H](O)[C@H]1O [8-amino-adenosine],18.2,19.8,18.2
Nc1ncnc2c1nc(Cl)n2[C@@H]1O[C@H](CO)[C@@H](O)[C@H]1O [8-chloro-adenosine],8.3,13.6,6.7
Cc1cc2c(F)c(Oc3ncnn4cc(OC[C@@H](C)O)c(C)c34)ccc2[nH]1 [Brivanib],0,0,0
CCc1c2c(nc3ccc(O)cc13)-c1cc3c(c(=O)n1C2)COC(=O)[C@]3(O)CC [SN-38],23.3,24.8,21.1
CNc1ncc2cc(-c3cc(NC(=O)NCCC(C)(C)C)c(F)cc3C)c(C)nc2n1,5.2,9,2.8
Cc1cnc(Nc2ccc(OCCN3CCCC3)cc2)nc1Nc1cccc(S(=O)(=O)NC(C)(C)C)c1 [Fedratinib],5.7,6.9,6
Cc1cc(Nc2nc(N[C@@H](C)c3ncc(F)cn3)ncc2Cl)[nH]n1 [AZD1480],0,0.2,0
C[C@@H]1CN(CC(=O)Nc2ccc3c(c2)Cc2cccc(-c4cc(=O)cc(N5CCOCC5)o4)c2S3)C[C@H](C)O1,2,2.4,2.2
CCn1c(-c2nonc2N)nc2cnc(Oc3cccc(NC(=O)c4ccc(OCCN5CCOCC5)cc4)c3)cc21,2.6,4,0.8
Cc1cc(OCc2nnc(SC3CCCC3)n2-c2cccnc2)ccc1-c1ccc(S(C)(=O)=O)cc1 [NMS-873],13.5,14.7,12.8
CO[C@@]12[C@H](COC(N)=O)C3=C(C(=O)C(C)=C(N)C3=O)N1C[C@@H]1N[C@@H]12 [Mitomycin C],0,0,1.2
NC(=O)/C(=C/n1cnc(-c2cc(C(F)(F)F)cc(C(F)(F)F)c2)n1)c1cncnc1 [Eltanexor],21.8,19.9,19.6
FC(F)(F)c1ccc(/C=C/c2nc(COc3ccc(CCCCn4ccnn4)cc3)co2)cc1 [Mubritinib],0,0,0
NC1(c2ccc(-c3nc4ccn5c(=O)[nH]nc5c4cc3-c3ccccc3)cc2)CCC1 [MK-2206],0,0,0

# Source: the supplement of paper PMC11003180
